Data on 26 molecules can be found in patent publication US12570642B2, “GLP-IR modulating compounds” (Gilead Sciences, Inc., priority 2021, dated 2026).

For the test, the target named is GLP-1R (Homo sapiens, UniProt P43220). Kind of test: GLP-1R Activation - cAMP Assay. The test is classed as cell-based. To be noted: each compound run on one of the two cAMP assays (Assay 1 or Assay 2, not specified). The method in brief:
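CHO cells stably expressing GLP-1R, plated at 1,000 cells/well overnight, then equilibrated 1 h in HBSS with 20 mM Hepes and 0.1% BSA. Agonist added as 10-point dose response for 30 min at 37 °C. cAMP measured by HTRF (Cisbio Gs Dynamic kit); EC50 from sigmoidal fit.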
A general note: cAMP levels reflect the balance of adenylyl cyclase and phosphodiesterase activity.

[1] abbreviates: cAMP increase in CHO cells stably expressing GLP-1R.

GLP-1R, sequence (P43220 24-463): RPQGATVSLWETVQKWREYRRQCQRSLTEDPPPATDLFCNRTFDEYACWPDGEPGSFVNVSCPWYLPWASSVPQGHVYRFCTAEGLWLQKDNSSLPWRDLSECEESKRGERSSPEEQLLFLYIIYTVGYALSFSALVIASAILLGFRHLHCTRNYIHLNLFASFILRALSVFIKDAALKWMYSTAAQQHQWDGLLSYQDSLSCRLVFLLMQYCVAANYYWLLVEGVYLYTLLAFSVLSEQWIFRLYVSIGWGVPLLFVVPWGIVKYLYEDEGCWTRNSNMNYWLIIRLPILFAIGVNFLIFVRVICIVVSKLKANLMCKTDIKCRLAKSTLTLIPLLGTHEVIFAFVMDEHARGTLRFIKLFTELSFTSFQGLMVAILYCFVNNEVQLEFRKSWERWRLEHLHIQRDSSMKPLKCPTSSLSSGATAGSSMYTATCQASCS

One may read the EC50 as the concentration at which the effect is half-maximal. A high value points to lower potency in that assay. Under setting [1], `Cc1cc(Cc2nc3ccc(C(=O)O)cc3n2[C@@H]2COCC2(C)C)c(Cl)cc1-c1ccnc(OCc2ccc(Cl)cc2)n1` [Example 218, (S)-2-(2-chloro-4-(2-((4-chlorobenzyl)oxy)pyrimidin-4-yl)-5-methylbenzyl)-1-(4,4-dimethyltetrahydrofuran-3-yl)-1H-benzo[d]imidazole-6-carboxylic acid] came in with an EC50 of 0.279 nM.

The molecule `CC1(C)COC[C@H]1n1c(Cc2c(F)cc(-c3cccc(OCc4ccc(Cl)cc4)n3)c(F)c2F)nc2ccc(C(=O)O)cc21` [Example 246, (S)-2-(4-(6-((4-chlorobenzyl)oxy)pyridin-2-yl)-2,3,6-trifluorobenzyl)-1-(4,4-dimethyltetrahydrofuran-3-yl)-1H-benzo[d]imidazole-6-carboxylic acid] came in with an EC50 under setting [1] of 0.065 nM.

`CC1(C)COCC1n1c(Cc2cc(F)c(-c3cccc(OCc4ncc(Cl)cc4F)n3)cc2F)nc2ccc(C(=O)O)cc21` (centres unmarked) [Example 296, 2-(4-(6-((5-chloro-3-fluoropyridin-2-yl)methoxy)pyridin-2-yl)-2,5-difluorobenzyl)-1-(4,4-dimethyltetrahydrofuran-3-yl)-1H-benzo[d]imidazole-6-carboxylic acid] registered an EC50 under setting [1] of 0.066 nM.

In turn, `CC1(C)COC[C@H]1n1c(Cc2c(F)cc(-c3cccc(OCc4ccc(Cl)cc4F)n3)cc2F)nc2c(F)cc(C(=O)O)cc21` [Example 305, (S)-2-(4-(6-((4-chloro-2-fluorobenzyl)oxy)pyridin-2-yl)-2,6-difluorobenzyl)-1-(4,4-dimethyltetrahydrofuran-3-yl)-4-fluoro-1H-benzo[d]imidazole-6-carboxylic acid] yielded an EC50 under setting [1] of 0.125 nM.

Regarding `COCCn1c(Cc2cc(F)c(-c3cccc(OCc4ccc(C#N)cc4F)n3)cc2F)nc2c(-c3cncnc3)cc(C(=O)O)cc21` [Example 55], under setting [1], a half-maximal effect (EC50) was put at 25.8 nM.

In the case of `N#Cc1ccc(COc2nc(-c3cc(F)c(Cc4nc5c(F)cc(C(=O)O)cc5n4C4COCC45CC5)cc3F)ccc2F)c(F)c1` (centres unmarked) [Example 224, 2-(4-(6-((4-cyano-2-fluorobenzyl)oxy)-5-fluoropyridin-2-yl)-2,5-difluorobenzyl)-4-fluoro-1-(5-oxaspiro[2.4]heptan-7-yl)-1H-benzo[d]imidazole-6-carboxylic acid], the response under setting [1] was half-maximal at 0.515 nM (EC50).

For `COCCn1c(Cc2cc(F)c(-c3cccc(OCc4ccc(-c5cn(C)nn5)cc4F)n3)cc2F)nc2ccc(C(=O)O)cc21` [Example 99, 2-(2,5-difluoro-4-(6-((2-fluoro-4-(1-methyl-1H-1,2,3-triazol-4-yl)benzyl)oxy)pyridin-2-yl)benzyl)-1-(2-methoxyethyl)-1H-benzo[d]imidazole-6-carboxylic Acid], under setting [1], a half-maximal response (EC50) required 0.6 nM. The EC50 values of the last two molecules are within 1.5-fold of each other.

`Cn1ncc(-c2ccc(COc3cccc(-c4cc(F)c(Cc5nc6ccc(C(=O)O)cc6n5[C@@H]5COCC5(C)C)cc4F)n3)c(F)c2)n1` [Example 553, (S)-2-(2,5-difluoro-4-(6-((2-fluoro-4-(2-methyl-2H-1,2,3-triazol-4-yl)benzyl)oxy)pyridin-2-yl)benzyl)-1-(4,4-dimethyltetrahydrofuran-3-yl)-1H-benzo[d]imidazole-6-carboxylic acid] yielded an EC50 under setting [1] of 0.132 nM.

Under setting [1], `CC1(C)COC[C@H]1n1c(Cc2c(F)cc(-c3ccnc(OCc4ccc(F)cc4)n3)c(F)c2F)nc2ccc(C(=O)O)cc21` [Example 574, (S)-1-(4,4-dimethyltetrahydrofuran-3-yl)-2-(2,3,6-trifluoro-4-(2-((4-fluorobenzyl)oxy)pyrimidin-4-yl)benzyl)-1H-benzo[d]imidazole-6-carboxylic acid] yielded an EC50 of 0.457 nM.

Turning to `CC1(C)COC[C@H]1n1c(Cc2cc(F)c(-c3cccc(OCc4c(F)cccc4F)n3)cc2F)nc2ccc(C(=O)O)cc21` [Example 476, (S)-2-(4-(6-((2,6-difluorobenzyl)oxy)pyridin-2-yl)-2,5-difluorobenzyl)-1-(4,4-dimethyltetrahydrofuran-3-yl)-1H-benzo[d]imidazole-6-carboxylic acid], the response under setting [1] was half-maximal at 0.614 nM (EC50).

With `COCCn1c(Cc2cc(F)c(-c3cccc(OCc4ccc(C#N)cc4F)n3)cc2F)nc2c(-c3ccccn3)cc(C(=O)O)cc21` [Example 84], the EC50 under setting [1] worked out at 1.34 nM. Compared with the last molecule, the EC50 is about 2.2-fold higher.

As to `Cn1cc(-c2cc(F)c(COc3cccc(-c4cc(F)c(Cc5nc6ccc(C(=O)O)cc6n5C5COCC5(C)C)cc4F)n3)cn2)cn1` (centres unmarked) [Example 90], the EC50 under setting [1] was 0.7 nM.

With `CC(=O)N1C[C@@H](n2c(Cc3cc(F)c(-c4cccc(OCc5ccc(C#N)cc5F)n4)cc3F)nc3ccc(C(=O)O)cc32)C2(CC2)C1` [Example 15, (S)-1-(5-acetyl-5-azaspiro[2.4]heptan-7-yl)-2-(4-(6-((4-cyano-2-fluorobenzyl)oxy)pyridin-2-yl)-2,5-difluorobenzyl)-1H-benzo[d]imidazole-6-carboxylic Acid], for the setting “[…]”, the EC50 was determined as 71 nM. That is a double-digit nanomolar value.

For the molecule `CC1(C)COC[C@H]1n1c(Cc2cc(F)c(-c3cccc(OCc4ccc(Cl)cc4F)c3)cc2F)nc2ccc(C(=O)O)cc21` [Example 508, (S)-2-((3′-((4-chloro-2-fluorobenzyl)oxy)-2,5-difluoro-[1,1′-biphenyl]-4-yl)methyl)-1-(4,4-dimethyltetrahydrofuran-3-yl)-1H-benzo[d]imidazole-6-carboxylic acid], the EC50 under setting [1] was 0.302 nM. That is a sub-nanomolar value.

`Cc1ccc(COc2cccc(-c3cc(F)c(Cc4nc5ccc(C(=O)O)cc5n4[C@@H]4COCC4(C)C)cc3F)n2)c(F)n1` [Example 252, (S)-2-(2,5-difluoro-4-(6-((2-fluoro-6-methylpyridin-3-yl)methoxy)pyridin-2-yl)benzyl)-1-(4,4-dimethyltetrahydrofuran-3-yl)-1H-benzo[d]imidazole-6-carboxylic acid]: under setting [1], it took 0.059 nM to reach a half-maximal effect (EC50).

For the molecule `COCCn1c(Cc2cc(F)c(-c3cccc(OCc4ncc(Br)cc4F)n3)cc2F)nc2ccc(C(=O)O)cc21` [Example 23], a half-maximal response under setting [1] (EC50) required 4.57 nM.

Turning to `Cc1ccc(COc2cccc(-c3cc(F)c(Cc4nc5ccc(C(=O)O)cc5n4[C@@H]4COCC4(C)C)cc3F)n2)cc1` [Example 361, (S)-2-(2,5-difluoro-4-(6-((4-methylbenzyl)oxy)pyridin-2-yl)benzyl)-1-(4,4-dimethyltetrahydrofuran-3-yl)-1H-benzo[d]imidazole-6-carboxylic acid], the midpoint of the response under setting [1], the EC50, lay at 0.131 nM.

`COc1cc(Cl)ncc1COc1nc(-c2cc(F)c(Cc3nc4c(F)cc(C(=O)O)cc4n3[C@@H]3COCC3(C)C)c(F)c2F)ccc1F` [Example 339, (S)-2-(4-(6-((6-chloro-4-methoxypyridin-3-yl)methoxy)-5-fluoropyridin-2-yl)-2,3,6-trifluorobenzyl)-1-(4,4-dimethyltetrahydrofuran-3-yl)-4-fluoro-1H-benzo[d]imidazole-6-carboxylic acid] had an EC50 under setting [1] of 0.013 nM.

The molecule `COCCn1c(Cc2cc(F)c(-c3cccc(OCc4ccc(Cl)cc4)n3)cc2F)nc2c(F)cc(C(=O)O)cc21` [Example 386, 2-(4-(6-((4-chlorobenzyl)oxy)pyridin-2-yl)-2,5-difluorobenzyl)-4-fluoro-1-(2-methoxyethyl)-1H-benzo[d]imidazole-6-carboxylic acid] gave an EC50 under setting [1] of 0.093 nM.

Regarding `C[C@H]1COC[C@H]1n1c(Cc2cc(F)c(-c3ccc(F)c(OCc4cc(F)c(C#N)cc4F)n3)cc2F)nc2ccc(C(=O)O)cc21` [Example 481, 2-(4-(6-((4-cyano-2,5-difluorobenzyl)oxy)-5-fluoropyridin-2-yl)-2,5-difluorobenzyl)-1-((3S,4R)-4-methyltetrahydrofuran-3-yl)-1H-benzo[d]imidazole-6-carboxylic acid], the midpoint of the response under setting [1], the EC50, lay at 0.883 nM.

Molecule `N#Cc1ccc(COc2cccc(-c3ccc(Cc4nc5ccc(C(=O)O)cc5n4[C@@H]4CCOC4)c(F)c3)n2)c(F)c1` [Example 209, (R)-2-(4-(6-((4-cyano-2-fluorobenzyl)oxy)pyridin-2-yl)-2-fluorobenzyl)-1-(tetrahydrofuran-3-yl)-1H-benzo[d]imidazole-6-carboxylic acid] returned an EC50 under setting [1] of 12.3 nM.

Turning to `CC1(C)COC[C@H]1n1c(Cc2cc(F)c(-c3cccc(OCc4ccc(C(F)F)cc4)n3)cc2F)nc2ccc(C(=O)O)cc21` [Example 357, (S)-2-(4-(6-((4-(difluoromethyl)benzyl)oxy)pyridin-2-yl)-2,5-difluorobenzyl)-1-(4,4-dimethyltetrahydrofuran-3-yl)-1H-benzo[d]imidazole-6-carboxylic acid], a half-maximal response under setting [1] (EC50) required 0.171 nM.

`CC1(C)COC[C@H]1n1c(Cc2ccc(-c3nc(OCc4ccc(C#N)cc4)c(F)cc3F)cc2F)nc2ccc(C(=O)O)cc21` [Example 152, (S)-2-(4-(6-((4-cyanobenzyl)oxy)-3,5-difluoropyridin-2-yl)-2-fluorobenzyl)-1-(4,4-dimethyltetrahydrofuran-3-yl)-1H-benzo[d]imidazole-6-carboxylic Acid] displayed an EC50 under setting [1] of 0.115 nM.

With `COCCn1c(Cc2cc(F)c(-c3ccnc(OCc4cnc(-n5ccnn5)cc4Cl)n3)cc2F)nc2ccc(C(=O)O)cc21` [Example 389, 2-(4-(2-((4-chloro-6-(1H-1,2,3-triazol-1-yl)pyridin-3-yl)methoxy)pyrimidin-4-yl)-2,5-difluorobenzyl)-1-(2-methoxyethyl)-1H-benzo[d]imidazole-6-carboxylic acid], under setting [1], the EC50 was 0.55 nM.

`C[C@H]1COC[C@H]1n1c(Cc2cc(F)c(-c3ccc(F)c(OCc4ccc(C#N)cc4)n3)cc2F)nc2ccc(C(=O)O)cc21` [Example 480, 2-(4-(6-((4-cyanobenzyl)oxy)-5-fluoropyridin-2-yl)-2,5-difluorobenzyl)-1-((3S,4R)-4-methyltetrahydrofuran-3-yl)-1H-benzo[d]imidazole-6-carboxylic acid]: the EC50 under setting [1] turned out to be 0.223 nM. This EC50 lies about 2.5-fold lower than the previous one.

As for `CC1(C)COC[C@H]1n1c(Cc2ccc(-c3ccc(F)c(OCc4ccc(C#N)cc4F)n3)cc2F)nc2ccc(C(=O)O)cc21` [Example 330], a half-maximal effect under setting [1] (EC50) was put at 0.011 nM. This EC50 lies about 20-fold lower than the previous one.
